In PubChem BioAssay AID248 (DTP/NCI, 2004):
“And” between values parts separate entries of the source, which are not always exact repeats. Equal entries are not always repeated. Toxic doses and inconclusive results are not listed. No stated cut-off is given here; in the data, active means T/C of 150% or more; inactive means T/C below 125%.

System: L1210 leukemia ip in BDF1 mice, survival T/C
Experiment: NCI In Vivo Anticancer Drug Screen. Data for tumor model L1210 Leukemia (intraperitoneal) in B6D2F1 (BDF1) mice
Details: endpoint: mean survival time, higher = longer survival
Procedure, shortened: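 Antitumor effect is assessed in tumor-bearing animals. Survival in the compound arm is compared with a vehicle-dosed control arm and expressed as their quotient.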

[1] = dose: 100.0 mg/kg/injection, schedule: Q01DX001 (ip), vehicle: saline
[2] = dose: 200.0 mg/kg/injection, schedule: Q01DX001 (ip), vehicle: saline
[3] = dose: 100.0 mg/kg/injection, schedule: Q04DX003 (ip), vehicle: saline
[4] = dose: 200.0 mg/kg/injection, schedule: Q04DX003 (ip), vehicle: saline
[5] = dose: 400.0 mg/kg/injection, schedule: Q04DX003 (ip), vehicle: saline

Measured: T/C

[Cl][Pt+2][Cl].[NH-]CC(=O)O.[NH-]CC(=O)O
inactive: dose: 9.7 mg/kg/injection, schedule: Q01DX009 (ip), vehicle: saline 86 % of control | dose: 19.4 mg/kg/injection, schedule: Q01DX001 (ip), vehicle: saline 100 % of control | dose: 19.4 mg/kg/injection, schedule: Q01DX009 (ip), vehicle: saline 89 % of control | dose: 38.8 mg/kg/injection, schedule: Q01DX001 (ip), vehicle: saline 105 % of control | dose: 38.8 mg/kg/injection, schedule: Q01DX009 (ip), vehicle: saline 95 % of control | dose: 77.5 mg/kg/injection, schedule: Q01DX001 (ip), vehicle: saline 109 % of control | dose: 77.5 mg/kg/injection, schedule: Q01DX009 (ip), vehicle: saline 100 % of control | dose: 155.0 mg/kg/injection, schedule: Q01DX001 (ip), vehicle: saline 98 % of control

O=C(O)CO
inactive: dose: 50.0 mg/kg/injection, schedule: Q01DX001 (ip), vehicle: saline 94 % of control | [1] 97 % of control | dose: 100.0 mg/kg/injection, schedule: Q01DX009 (ip), vehicle: saline with Tween-80 107 % of control | [2] 108 % of control | dose: 200.0 mg/kg/injection, schedule: Q01DX009 (ip), vehicle: saline with Tween-80 100 % of control | dose: 400.0 mg/kg/injection, schedule: Q01DX009 (ip), vehicle: saline with Tween-80 93 % of control

Cc1ccc(C(=O)n2c(Cl)c(/C=N/NC(N)=S)c3ccccc32)cc1
inactive: dose: 50.0 mg/kg/injection, schedule: Q04DX002 (ip), vehicle: Klucel (hydroxypropylcellulose) (HPC) 87 % of control | dose: 100.0 mg/kg/injection, schedule: Q04DX002 (ip), vehicle: Klucel (hydroxypropylcellulose) (HPC) 95 % of control

CCOP(=[Se])(OCC)OCC
inactive: dose: 12.5 mg/kg/injection, schedule: Q01DX009 (ip), vehicle: saline with Tween-80 91 % of control | dose: 25.0 mg/kg/injection, schedule: Q01DX009 (ip), vehicle: saline with Tween-80 107 % of control | dose: 50.0 mg/kg/injection, schedule: Q01DX009 (ip), vehicle: saline with Tween-80 88 % of control

COCCOCCOC(=O)C(CO)(CC(CO)(C(C)=O)C(=O)OCCOCCOC)C(C)=O (stereo unspecified)
inactive: dose: 222.0 mg/kg/injection, schedule: Q01DX Z (ip), vehicle: saline 92 % of control | dose: 333.0 mg/kg/injection, schedule: Q01DX Z (ip), vehicle: saline 102 % of control | dose: 500.0 mg/kg/injection, schedule: Q01DX Z (ip), vehicle: saline 107 % of control

NC1CCC(O)CC1 (stereo unspecified)
inactive: [1] 110 % of control | [2] 97 % of control | dose: 400.0 mg/kg/injection, schedule: Q01DX001 (ip), vehicle: saline 97 % of control

CC(=O)Nc1cccc(OC(=O)Nc2ccc([N+](=O)[O-])cc2Cl)c1
inactive: dose: 100.0 mg/kg/injection, schedule: Q01DX009 (ip), vehicle: saline 98 % of control | [3] 97 % of control | dose: 200.0 mg/kg/injection, schedule: Q01DX009 (ip), vehicle: saline 98 % of control | [4] 107 % of control | dose: 400.0 mg/kg/injection, schedule: Q01DX009 (ip), vehicle: saline 102 % of control | [5] 105 % of control

O=C(O)C(O)C(O)C(O)C(O)CO (stereo unspecified)
inactive: [3] 106 % of control | [4] 96 % of control | [5] 96 % of control

C(=Nc1ccccc1)c1ccc[nH]1
inactive: dose: 100.0 mg/kg/injection, schedule: Q04DX003 (ip), vehicle: saline with Tween-80 100 % of control | dose: 200.0 mg/kg/injection, schedule: Q04DX003 (ip), vehicle: saline with Tween-80 93 % of control | dose: 400.0 mg/kg/injection, schedule: Q04DX003 (ip), vehicle: saline with Tween-80 96 % of control

Cc1ccc(NC2OC(CO)C(O)C(O)C2O)cc1 (stereo unspecified)
inactive: dose: 75.0 mg/kg/injection, schedule: Q01DX001 (ip), vehicle: steriod suspending solution 99 % of control | dose: 150.0 mg/kg/injection, schedule: Q01DX001 (ip), vehicle: steriod suspending solution 94 % of control | dose: 300.0 mg/kg/injection, schedule: Q01DX001 (ip), vehicle: steriod suspending solution 94 % of control

Cc1ccc(/C=N/NC(=O)c2ccncc2)cc1
inactive: dose: 25.0 mg/kg/injection, schedule: Q01DX009 (ip), vehicle: Klucel (hydroxypropylcellulose) (HPC) 94 % of control | dose: 50.0 mg/kg/injection, schedule: Q01DX009 (ip), vehicle: Klucel (hydroxypropylcellulose) (HPC) 96 % of control | dose: 100.0 mg/kg/injection, schedule: Q01DX009 (ip), vehicle: Klucel (hydroxypropylcellulose) (HPC) 94 % of control and 96 % of control

CC(/C=C/c1ccc2c(c1)OCO2)[N+](=O)[O-] (stereo unspecified)
inactive: dose: 100.0 mg/kg/injection, schedule: Q01DX001 (ip), vehicle: Klucel (hydroxypropylcellulose) (HPC) 103 % of control | dose: 200.0 mg/kg/injection, schedule: Q01DX001 (ip), vehicle: Klucel (hydroxypropylcellulose) (HPC) 103 % of control | dose: 400.0 mg/kg/injection, schedule: Q01DX001 (ip), vehicle: Klucel (hydroxypropylcellulose) (HPC) 106 % of control
